Reference: patent US20240425529A1, “BORIC ACID DERIVATIVE” (SHOUYAO HOLDINGS (BEIJING) CO., LTD., priority 2021, published 2024)

Columns and labels:
LMP7 [1] = target: T1, LMP7 (Homo sapiens, UniProt P28062); assay: Enzymatic inhibitory activity on LMP7 (MOLT-4 cell lysate, Ac-ANW-AMC substrate); assay type: biochemical; details: 1 hour pre-incubation
T1 construct: using MOLT-4 cell lysate as the enzyme source of LMP7; endogenous in cells; host or cells: MOLT-4 (human acute lymphoblastic leukemia cells)
Summary of the method: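 Enzyme source was MOLT-4 cell lysate (20 ng/μl final) in 20 mM Tris pH 8.0, 0.5 mM EDTA, preincubated 1 h at 23 °C with compound at 9 final concentrations (0–2000 nM). Ac-ANW-AMC ([…]) was then added, 2 h at 23 °C in the dark. AMC fluorescence (ex 345/em 445 nm) gave the IC50.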

[2] = Animal pharmacokinetic study in rats, single gavage; assay type: in vivo; details: rat, po; male rats, single gavage 5 mg/kg, plasma
Experimental: Three healthy adult male rats from Beijing Vital River Experimental animal Technology Co. Ltd were used for animal pharmacokinetic experiments. The compounds were suspended in 20% sulfobutyl ether-β-cyclodextrin (W/W/V) at a concentration of 1 mg/mL at a dosing volume of 5 mL/kg by single gavage at a dose of 5 mg/kg. Animals were fasted overnight before the experiment, from 10 hours before the administration to 4 hours after the administration. Blood was collected at 0.25, 0.5, 1, 2, 4, 6, 8, and 24 hours after the administration. The animals were anesthetized with isoflurane. About 0.4 mL of whole blood was collected from the orbital venous plexus using a glass blood collection tube and placed in a heparin anticoagulant tube. The sample was centrifuged at 4200 rpm for 5 min at 4° C. The plasma was transferred to a centrifuge tube and stored at −80° C. for later analysis. The plasma sample analysis used the acetonitrile protein precipitation method to extract the compound to be tested and internal standard (Warfarin or Propranolol) from rat plasma, and the extraction solution was analyzed by LC/MS/MS. The plasma concentration-time data of individual animals measured were analyzed using anon-compartmental model using the WinNonlin (version 5.2.1; Pharsight company) software, and the following pharmacokinetic parameters were obtained: maximum (peak) plasma drug concentration Cmax; Time to max Tmax; the area under the curve AUC0-inf of blood drug concentration-time from half-life T½ and extrapolation to infinite time.

LMP7 [3] = target: T1, LMP7; assay: Cytological inhibitory activity on LMP7 in MOLT-4 cells; assay type: cell-based; details: incubation for 2 hours with compound, read-out: Cytological activity data LMP7 Activity (MOLT-4Cell)
Summary of the method: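 MOLT-4 cells pre-incubated 2 h with compound (8 concentrations, 5-fold dilution series from 2 mM DMSO stock, 5% FBS), washed and lysed. Lysate (20 ng/μl, 2× stock) reacted with Ac-ANW-AMC (100 μM, 2× stock) in 20 mM Tris pH 8.0, 0.5 mM EDTA, 1 h, 23 °C. Fluorescence at 345/445 nm; IC50 fitted.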

β5 = target: T2, β5 (Homo sapiens, UniProt P28074); assay: Enzymatic inhibitory activity on β5 (HEK-293 cell lysate, Ac-WLA-AMC substrate); assay type: biochemical; details: 1 hour pre-incubation
T2 construct: using HEK-293 cell lysate as the enzyme source of D5; endogenous in cells; host or cells: HEK-293 (human embryonic kidney cells)
Summary of the method: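 HEK-293 lysate (25 ng/μl final) preincubated 1 h at 23 °C with compound (9-point, 5-fold dilutions) in 20 mM Tris pH 8.0, 0.5 mM EDTA. Ac-WLA-AMC then added at 20 μM final for 2 h at 23 °C in the dark. AMC fluorescence read at Ex 345/Em 445 nm; IC50 from curve fit.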

| Compound | IC50 (LMP7 [1]) | AUC(0-inf) [2] | Cmax [2] | Tmax [2] | half-life [2] | IC50 (LMP7 [3]) | IC50 (β5) |
| --- | --- | --- | --- | --- | --- | --- | --- |
| O=C(N[C@@H](Cc1coc2ccccc12)B(O)O)C(=O)N1CCOCC1 [Ex. 5, (R)-(2-(benzofuran-3-yl)-1-(2-morpholino-2-oxoacetamido)ethyl)boronic acid] | 15.6 nM | 20900 ng·h/mL | 3800 ng/mL | 1.17 h | 4.2 h | – | – |
| CC1(C)[C@@H]2C[C@H]3OB([C@H](Cc4coc5ccccc45)NC(=O)C(=O)Nc4ccc(F)cc4F)O[C@@]3(C)[C@H]1C2 [Ex. 54, (R)-(2-(benzofuran-3-yl)-1-(2-oxo-2-(2,4-difluorophenylamino)acetamido)ethyl)boronic acid (1S,2S,3R,5S)-(+)-pinane-2,3-diol ester] | 0.89 nM | – | – | – | – | 5.33 nM | 23.7 nM |
| O=C(Nc1ccc(F)cc1F)C(=O)N[C@@H](Cc1coc2ccccc12)B(O)O [Ex. 55, (R)-(2-(benzofuran-3-yl)-1-(2-oxo-2-(2,4-difluorophenylamino)acetamido)ethyl)boronic acid] | 1.43 nM | – | – | – | – | 6.84 nM | 54.6 nM |
| O=C(N[C@@H](Cc1coc2ccccc12)B(O)O)C(=O)N1CCCC(F)(F)C1 [Ex. 56, (R)-(2-(benzofuran-3-yl)-1-(2-oxo-2-(3,3-difluoropiperidin-1-yl)acetamido)ethyl)boronic acid] | 7.48 nM | – | – | – | – | 6.39 nM | 88.4 nM |
| COC(=O)C(=O)N[C@@H](Cc1coc2ccccc12)B(O)O [Ex. 62, (R)-(2-(benzofuran-3-yl)-1-(2-oxo-2-methoxyacetamido)ethyl)boronic acid] | 7.89 nM | – | – | – | – | 26.7 nM | 1300 nM |
| O=C(Nc1cccnc1Cl)C(=O)N[C@@H](Cc1coc2ccccc12)B(O)O [Ex. 64, (R)-(2-(benzofuran-3-yl)-1-(2-oxo-2-((2-chloropyridin-3-yl)amino)acetamido)ethyl)boronic acid] | 2.31 nM | – | – | – | – | 1.79 nM | 25.4 nM |
| CC1COB([C@H](Cc2coc3ccccc23)NC(=O)C(=O)Nc2cnccn2)O1 (stereo partly drawn) [Ex. 68] | 1.24 nM | – | – | – | – | 1.1 nM | 34.8 nM |
| O=C(Nc1cnccn1)C(=O)N[C@@H](Cc1coc2ccccc12)B1OCCCO1 [Ex. 70] | 1.5 nM | – | – | – | – | 0.91 nM | 26 nM |
| CC1(C)COB([C@H](Cc2coc3ccccc23)NC(=O)C(=O)Nc2cnccn2)OC1 [Ex. 71] | 1.18 nM | – | – | – | – | 1.35 nM | 28.5 nM |

The remaining lines, values ahead:

| IC50 (LMP7 [1]) | AUC(0-inf) [2] | Cmax [2] | Tmax [2] | half-life [2] | IC50 (LMP7 [3]) | IC50 (β5) | Compound |
| --- | --- | --- | --- | --- | --- | --- | --- |
| – | 108000 ng·h/mL | 7710 ng/mL | 0.42 h | 14.4 h | – | – | O=C(Nc1nccs1)C(=O)N[C@@H](Cc1coc2ccccc12)B(O)O [Ex. 25, (R)-(2-(benzofuran-3-yl)-1-(2-oxo-2-(thiazol-2-ylamino)acetamido)ethyl) boronic acid] |
| 1.32 nM | – | – | – | – | 4.03 nM | 140 nM | Cn1cccc(NC(=O)C(=O)N[C@@H](Cc2coc3ccccc23)B2O[C@@H]3C[C@@H]4C[C@@H](C4(C)C)[C@]3(C)O2)c1=O [Ex. 57, (R)-(2-(benzofuran-3-yl)-1-(2-oxo-2-((1-methyl-2-oxo-1,2-dihydropyridin-3-yl)amino)acetamido)ethyl)boronic acid (1S,2S,3R,5S)-(+)-pinane-2,3-diol ester] |
| 0.95 nM | – | – | – | – | 5.45 nM | 84.1 nM | Cn1cccc(NC(=O)C(=O)N[C@@H](Cc2coc3ccccc23)B(O)O)c1=O [Ex. 58, (R)-(2-(benzofuran-3-yl)-1-(2-oxo-2-((1-methyl-2-oxo-1,2-dihydropyridin-3-yl)amino)acetamido)ethyl)boronic acid] |
| 4.27 nM | – | – | – | – | 46.6 nM | 722 nM | COC(=O)C(=O)N[C@@H](Cc1coc2ccccc12)B1O[C@@H]2CC3C[C@@H](C3(C)C)[C@]2(C)O1 [Ex. 61, (R)-(2-(benzofuran-3-yl)-1-(2-oxo-2-methoxyacetamido)ethyl)boronic acid (1S,2S,3R,5S)-(+)-pinane-2,3-diol ester] |
| 1.44 nM | – | – | – | – | 0.88 nM | 18.2 nM | C[C@@H]1COB([C@H](Cc2coc3ccccc23)NC(=O)C(=O)Nc2cnccn2)O1 [Ex. 69] |
| 1.46 nM | – | – | – | – | 0.98 nM | 21.8 nM | CC1(C)CC(C)(C)OB([C@H](Cc2coc3ccccc23)NC(=O)C(=O)Nc2cnccn2)O1 [Ex. 72] |
